Source: paper PMC8110578, “Phenylethynylbenzyl-modified biguanides inhibit pancreatic cancer tumor growth” (Scientific Reports, 2021)
Read-outs that look alike come from different tables or passages of the source.

What was measured:
red blood cells [1] = assay: Hemolytic activity of PEB-biguanidium salts; format: cell-based; details: red blood cells 2% v/v in PBS, 1 h at 37 °C
Experimental: The toxicity of PEB-Biguanidiums salts was estimated through their hemolytic activity by incubating red blood cells (RBC) with the compounds for 1 h (See Supplementary Table S13 and Supplementary Fig. S29).
Experimental. Red blood cells in Alsever’s solution were centrifuged for 10 min at 300g, washed 3 times with PBS buffer, and resuspended in PBS at 2% v/v. To each well of a 96-well plate, 195 µL of red blood cell solution and 5 µL of biguanidium salt in DMSO were added, and the plate was incubated with light agitation for 1 h at 37 °C. The plate was then centrifuged for 10 min at 300g, and 50 µL of the supernatant solution of each well was transferred to another plate. Absorbance was measured at λ = 405 nm. Each measurement was performed in triplicate in three different experiments.

[2] = system: HPNE cells (normal immortalized pancreatic epithelial cells); assay: Growth assay (crystal violet), HPNE cells; format: cell-based, human; details: 3 days treatment, crystal violet retention assay
Experimental: . The IC50 of most of the synthetic biguanides in HPNE cells was higher than for cancer cells (Supplementary Table S12).
(§1) All chemicals were purchased from Aldrich Chemicals in their highest purity and used without further purification. Deuterated dimethylsulfoxide (DMSO-d^6) and deuterated chloroform (CDCl3) were purchased from CDN Isotopes. NMR spectra were recorded on Bruker advance 400 and 100 spectrometers. Coupling constants are given in hertz (Hz) and chemical shifts are given in parts per million (ppm, δ) measured relative to the residual solvent (the multiplicity of the signals are given as s: singlet, d: doublet, t: triplet, and m: multiplet). High-resolution mass spectra (HRMS) were recorded on a TSQ Quantum Ultra (Thermo Scientific) triple quadrupole with accurate mass option instrument (Université de Montréal Mass Spectrometry Facility). MS experiences were performed using an UltrafleXtreme MALDI TOF/TOF mass spectrometer equipped with a SmartBeam II Nd:Yag/355 nm laser operating at 1 kHz and providing a laser focus down to 20 μm in diameter (Bruker Daltonics, Billerica, MA). The data acquisition for MS was performed in positive ion mode using the linear geometry with flexControl 3.4 (Bruker Daltonics, Billerica, MA). Acceleration voltage was set to + 25 kV and all other instrumental parameters (delayed extraction parameters, source voltages, detector gain, laser energy, etc.) were optimized for maximum S/N for the drug compounds. L-α-Phosphatidylcholine was purchased from Avanti Polar Lipids. Transport and depolarization studies as well as absorbance measurements were performed on a Varian Cary Eclipse fluorescence spectrophotometer. The hemolysis assays were performed on a Fluostar Optima plate reader. Single crystals of C18H18F3N5O3S were obtained from chloroform. A suitable crystal was selected and analysed on a Bruker Venture Metaljet diffractometer. Crystal violet retention assay was used for cell growth assays and IC50 were determined using Prism (GraphPad). NAD/NADH quantitation colorimetric kit (#K337-100) from Biovision was used according to manufacturer’s instructions. ECAR (extracellular acidification rate) and OCR of KP4 cells (oxygen consumption rate) were measured on a Seahorse XF-24 (Agilent).
(§2) Experimental. KP4 (Riken RCB1005) and PSN1 (ATCC: CRM-CRL-3211), were cultured in Dulbecco's modified Eagle's medium (DMEM) (Wisent, St-Bruno, QC) supplemented with 10 % of fetal bovine serum (FBS) (Wisent). HPNE hTERT (ATCC: CRL1423) were cultured in a mix of 75% DMEM without glucose (Sigma Cat#. D-5030) with additional 2 mM L-glutamine and 1.5 g/L sodium bicarbonate, 25% Medium M3 Base (Incell Corp. Cat# M300F- 500), fetal bovine serum 5% (wisent 10 ng/ml human recombinant EGF (Sigma-Aldrich), 5.5 mM D-glucose (Sigma-Aldrich), 750 ng/ml puromycin (Sigma-Aldrich). For dose-response assays, cells were seeded in 96 well plates (company). After 24 h, treatments were applied and cells were grown for 3 more days. Crystal violet retention assay used for cell growth assays were described previously^2. The data is expressed as relative absorbance of crystal violet extracted from the cells and diluted in 10 % acetic acid. IC50 were determined using Prism (GraphPad). Tumor spheres were grew according to Ferbeyre et al^3.

KP4 cells = assay: Growth assay (crystal violet), KP4 cells; format: cell-based, human; details: KP4 cells, 3 days treatment, crystal violet retention assay, read-out: IC50 KP4
Experimental: as §1, §2

red blood cells [3] = system: red blood cells; parameters: method as in PMID 23143143, doi:10.1039/C3md00293d; details: cited from earlier work

## N=C(N)NC(=N)Nc1ccc(C#Cc2ccccc2)cc1 [3a, 4-(phenylethynylphenyl)biguanidium]
Red blood cells [1]
  HC 10% (µM): > 179 µM
  HC 10% (µg/ml): > 100 µg/mL
[2]
  IC50: 20.2 µM
KP4 cells
  IC50: 17 µM

## N=C(N)NC(=N)Nc1ccc(CCc2ccccc2)cc1 [4b, 4-(phenylethylphenyl)biguanidium]
Red blood cells [1]
  HC 10% (µM): > 232 µM
  HC 10% (µg/ml): > 100 µg/mL
[2]
  IC50: 47.4 µM
KP4 cells
  IC50: 13.9 µM

## N=C(N)NC(=N)Nc1ccc(C#Cc2ccccc2)cc1 [3b, 4-(phenylethynylphenyl)biguanidium]
Red blood cells [1]
  HC 10% (µM): > 234 µM
  HC 10% (µg/ml): > 100 µg/mL
[2]
  IC50: 60.4 µM
KP4 cells
  IC50: 58.3 µM

## N=C(N)NC(=N)Nc1ccc(CCc2ccccc2)cc1 [4c, 4-(phenylethylphenyl)biguanidium]
Red blood cells [1]
  HC 10% (µM): > 315 µM
  HC 10% (µg/ml): > 100 µg/mL
KP4 cells
  IC50: 16.9 µM

## C(#Cc1ccc(Cn2c[n+](Cc3ccccc3)c3ccccc32)cc1)c1ccccc1 [A.2]
Red blood cells [3]
  HC50 (concentration that kills 50% of red blood cells): 1 mM

## N=C(N)NC(=N)Nc1ccc(CCc2ccccc2)cc1 [4a, 4-(phenylethylphenyl)biguanidium]
Red blood cells [1]
  HC 10% (µM): > 178 µM
  HC 10% (µg/ml): > 100 µg/mL
[2]; Homo sapiens, HPNE, 72 h
  IC50: 32.6 µM
KP4 cells; Homo sapiens, KP-4, 72 h
  IC50: 12.2 µM

## N=C(N)NC(=N)NCc1ccc(CCc2ccccc2)cc1 [2a, 4-(phenylethyl)benzylbiguanide]
Red blood cells [1]
  HC 10% (µM): > 173 µM
  HC 10% (µg/ml): > 100 µg/mL
[2]
  IC50: 23.2 µM
KP4 cells
  IC50: 20.7 µM

## C(#Cc1ccc(Cn2c[n+](Cc3ccc(C#Cc4ccccc4)cc3)c3ccccc32)cc1)c1ccccc1 [A.1]
Red blood cells [3]
  HC50 (concentration that kills 50% of red blood cells): 0.15 mM

## N=C(N)NC(=N)Nc1ccc(C#Cc2ccccc2)cc1 [3c, 4-(phenylethynylphenyl)biguanidium]
Red blood cells [1]
  HC 10% (µM): > 319 µM
  HC 10% (µg/ml): > 100 µg/mL
[2]
  IC50: 52.6 µM
KP4 cells
  IC50: 38.9 µM

## N=C(N)NC(=N)NCc1ccc(C#Cc2ccccc2)cc1 [1c, 4-(phenylethynyl)benzylbiguanide]
Red blood cells [1]
  HC 10% (µM): > 305 µM
  HC 10% (µg/ml): > 100 µg/mL
[2]
  IC50: 28.1 µM
KP4 cells
  IC50: 9.21 µM

## N=C(N)NC(=N)NCc1ccc(CCc2ccccc2)cc1 [2c, 4-(phenylethyl)benzylbiguanide]
Red blood cells [1]
  HC 10% (µM): 151 µM
  HC 10% (µg/ml): 50 µg/mL
[2]; Homo sapiens, HPNE, 72 h
  IC50: 37.4 µM
KP4 cells; Homo sapiens, KP-4, 72 h
  IC50: 15.8 µM

## C[n+]1cn(Cc2ccc(C#Cc3ccccc3)cc2)c2ccccc21 [A.3]
Red blood cells [3]
  HC50 (concentration that kills 50% of red blood cells): 150 mM

## N=C(N)NC(=N)NCc1ccc(CCc2ccccc2)cc1 [2b, 4-(phenylethyl)benzylbiguanide]
Red blood cells [1]
  HC 10% (µM): > 225 µM
  HC 10% (µg/ml): > 100 µg/mL
[2]
  IC50: 31.3 µM
KP4 cells
  IC50: 17.4 µM
